Reference: patent US20250160275A1, “COMPOUNDS FOR MODIFYING MEIOTIC RECOMBINATION AND METHODS RELATING THERETO” (The University of North Carolina at Chapel Hill, priority 2022, published 2025)

What was measured:
[1] = tested on: flowering Arabidopsis thaliana plants; assay: visual fluorescent pollen transgene assay, crossover frequency in interval I5d (chromosome 5); type: in vivo; details: 10% DMSO and 0.01% Silwet; for genetic map distance: p-value 0.000
Procedure: An aqueous solution of 3-aminobutanoic acid was applied to flowering Arabidopsis thaliana plants to enhance the frequency of meiotic recombination (crossovers). Silwet, a spraying adjuvant, was added to the 3-aminobutanoic acid solution at a volume/volume concentration of 0.01%. The solution was applied to the plants by foliar spraying until the plants were drenched. Several concentrations of 3-aminobutanoic acid were used including 0.1, 1, 7.5, 10, 12.5 and 15 mM. As a control, other plants (i.e., control plants) were treated with an aqueous 0.01% solution of Silwet by foliar spraying the solution on the plants until the plants were drenched.
(§1) Crossover frequencies were measured in pollen from treated and control plants using a visual fluorescent pollen transgene assay as described in Francis et al., Proc Natl Acad Sci USA. 2007; 104 (10): 3913-3918. In this assay pollen tetrads are scored as Parental Ditype (PD), Nonparental Ditype (NPD) or Tetratype (TT) and the frequency of those tetrad classes are used to calculate a genetic map distances in centiMorgans (cM) between reporter genes expressing fluorescent proteins. The genetic map distances between a pair of markers on chromosome 5 were compared between control plants and treated plants. The genetic interval between the two markers was designated as I5d. […] In Table 2, each experimental treatment is paired with data from control plants that were treated and scored together and designated with an experiment number in the first column.
An aqueous solution phenethyl isothiocyanate (IUPAC name: 2-isothiocyanatoethylbenzene) was applied to flowering Arabidopsis thaliana plants to enhance the frequency of meiotic recombination (crossovers). Phenethyl isothiocyanate in an aqueous solution containing 10% DMSO and 0.01% Silwet was applied by foliar spray until the plants were drenched. The phenethyl isothiocyanate was first dissolved in 100% DMSO and then diluted to its final concentration with 0.0.1% Silwet in water. Several concentrations of phenethyl isothiocyanate were used including 7.5, 10, and 12.5 mM. Control plants were treated with an aqueous solution of 10% DMSO and 0.01% Silwet by foliar spraying the solution on the control plants until the control plants were drenched.
as §1, with “4,” for “2,”
An aqueous solution BIX-01294 (IUPAC name: N-(1-benzylpiperidin-4-yl)-6,7-dimethoxy-2-(4-methyl-1,4-diazepan-1-yl) quinazolin-4-amine) was applied to flowering Arabidopsis thaliana plants to enhance the frequency of meiotic recombination (crossovers). BIX-01294 in an aqueous solution containing 10% DMSO and 0.01% Silwet was applied by foliar spray until the plants were drenched. The BIX-01294 was first dissolved in 100% DMSO and then diluted to its final concentration with 0.0.1% Silwet in water. Several concentrations of […] were used including 0.5, 1, 2.5 and 5 mM. Control plants were treated with an aqueous solution of 10% DMSO and 0.01% Silwet by foliar spraying the solution on the control plants until the control plants were drenched. […]

[2] = tested on: rice (Kitaake x Nipponbare F1 plants); assay: meiotic recombination in rice F1 plants, recombinant reads in sequenced pollen DNA; type: in vivo, Oryza sativa subspecies japonica; details: 7.5 mM whole-plant spray at panicle stage, 10% DMSO and 0.01% Silwet; pollen harvested after 5-7 days
Source text: Meiotic recombination was stimulated in rice by external application of phenethyl isothiocyanate (IUPAC name: 2-isothiocyanatoethylbenzene). First, two parental rice lines, “Oryza sativa subspecies japonica variety Kitaake” (“Kitaake” hereafter) and “Oryza sativa subspecies japonica variety Nipponbare” (“Nipponbare” hereafter) were manually crossed to produce F1 seeds. F1 seeds were germinated and grown to produce F1 plants. PCR was used to genotype the F1 plants and confirm their heterozygosity. When F1 plants produced panicles (inflorescences) they were treated by spraying the whole plant, until saturation, with 7.5 mM phenethyl isothiocyanate in an aqueous solution containing 10% DMSO and 0.01% Silwet. The phenethyl isothiocyanate was first dissolved in 100% DMSO and then diluted to its final concentration with 0.0.1% Silwet in water. Control plants were mock-treated with 10% DMSO and 0.01% Silwet. […] Reads that spanned at least two parental SNPs were selected and binned into those that contained SNPs of only the Kitaake type (non-recombinant), only the Nipponbare type (non-recombinant) or both Kitaake and Nipponbare type (recombinant). The frequency of recombinant reads from treated and untreated plants were compared to detect an increase in meiotic recombination resulting from treatment with phenethyl isothiocyanate.

Compound: S=C=NCCc1ccccc1 [phenethyl isothiocyanate, 2-isothiocyanatoethylbenzene]
- NPD (Nonparental Ditype pollen tetrads) ([1]; 7.5 mM foliar spray, Exp.(2)): 2
- PD (Parental Ditype pollen tetrads) ([1]; 7.5 mM foliar spray, Exp.(2)): 978
- TT (Tetratype pollen tetrads) ([1]; 7.5 mM foliar spray, Exp.(2)): 211
- genetic map distance ([1]; 7.5 mM foliar spray, Exp.(2), DMSO control 5.90 cM): 9.36 cM
- NPD (Nonparental Ditype pollen tetrads) ([1]; 10 mM foliar spray, Exp.(1)): 0
- PD (Parental Ditype pollen tetrads) ([1]; 10 mM foliar spray, Exp.(1)): 1840
- TT (Tetratype pollen tetrads) ([1]; 10 mM foliar spray, Exp.(1)): 370
- genetic map distance ([1]; 10 mM foliar spray, Exp.(1), DMSO control 5.77 cM): 8.37 cM
- NPD (Nonparental Ditype pollen tetrads) ([1]; 12.5 mM foliar spray, Exp.(2)): 0
- PD (Parental Ditype pollen tetrads) ([1]; 12.5 mM foliar spray, Exp.(2)): 868
- TT (Tetratype pollen tetrads) ([1]; 12.5 mM foliar spray, Exp.(2)): 200
- genetic map distance ([1]; 12.5 mM foliar spray, Exp.(2), DMSO control 5.90 cM): 9.36 cM
- meiotic recombination in treated plants compared to controls ([1]; all concentrations (7.5, 10, 12.5 mM)): increase meiotic recombination
- meiotic recombination in rice [2]: stimulated
